Drawing on PubChem BioAssay (NCI), this text covers GI50 and TGI for eight molecules.

What all share (assay): inhibition of tumour cell growth, NCI panel, 48 h
The test system of assay [1] is SK-MEL-2 melanoma.
Assay [2] has as its system COLO 205 colon.
Assay [3] has as its system HS 578T breast.
For assay [4], the system named is SF-539 CNS.
For assay [5], the system named is SNB-75 CNS.
In assay [6] the test system is HOP-62 NSCLC.
For assay [7], the system named is A549 NSCLC.
For assay [8], the system named is MDA-MB-231 breast.
In assay [9] the test system is PC-3 prostate.
The subject of assay [10] is DU-145 prostate.

The structures appear in SMILES notation.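 Dose response: 5 concentrations. Exposure: 48 h. Format: 96-well plates. Endpoint: linear interpolation; highest concentration if not reached. The concentration for 50% growth inhibition is given as GI50. TGI marks complete inhibition of growth.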

For `O=C(Nc1n[nH]c2nnc(-c3cccnc3)cc12)C1CC1`, the GI50 in [1] is 21.8 µM; in assay [2] it was 7.45 µM; in assay [3] it was 0.0833 µM; in [4] it was 2.79 µM; in assay [5], 0.141 µM; in assay [6], 10.1 µM. Also, the results for the GI50 in assay [7], in assay [9] and in [10] were above 20.7 µM, 6.44 µM and above 13.4 µM, respectively. Moreover, the TGI in assay [1] was above 25 µM; in assay [2] it was above 25 µM; in assay [3], above 9.38 µM; in assay [4], above 20.8 µM; in assay [5], above 25 µM; in [6] it was above 25 µM. The TGI in [7], in assay [8], in assay [9] and in [10] was above 25 µM throughout.
Consider `CCCCCCCCCCCCCCCCC(=O)O.CCCCCCCCCCCCCCCCCC(=O)O.CCCCCCCCCCCCCCCCCC(=O)O.CCCCCCCCCCCCCCCCCC(=O)O.CCCCCCCCCCCCCCCCCC(=O)O.CO[CH-]OC12COC1CC(O)C1(C)C(O)C(OC(C)O)C3=C(C)C(OC(=O)C(O)C([NH-])c4ccccc4)CC(O)(C(OC(=O)c4ccccc4)C21)C3(C)C.[Cu+].[Zn].[Zn].[Zn].[Zn].[Zn]` (stereo unspecified), for which the GI50 in assay [1] is below 0.0118 µM; in assay [2] it was 0.00844 µM; in assay [3] it was 0.00335 µM; in [4] it was 0.00598 µM; in [5], below 0.0025 µM; in assay [6] it was 0.0131 µM. In addition, the GI50 was 0.00818 µM in assay [7], 0.0135 µM in assay [8], 0.00998 µM in assay [9] and 0.00871 µM in assay [10]. Besides, the TGI is 11.2 µM in [1]; above 25 µM in [2]; 0.0297 µM in assay [3]; 0.0506 µM in [4]; 0.0211 µM in [5]; above 20.4 µM in assay [6]. Also, the TGI in assay [7] was above 22.3 µM; in assay [8] it was 4.48 µM; in assay [9] it was 5.63 µM; in assay [10], 1.63 µM.
Take `Oc1cc2ccccc2c(-c2c(O)c(O)cc3ccccc23)c1O`: the GI50 was 2.74 µM in assay [1]; 2.06 µM in assay [2]; 2.9 µM in assay [3]; 1.68 µM in assay [4]; 2.23 µM in assay [5]; 1.03 µM in assay [6]. Also, the GI50 in assay [7] was 0.41 µM; in assay [8], 4.64 µM; in assay [9], 2.17 µM; in [10], 2.29 µM. Also, the TGI is 15.5 µM in [1]; 8.95 µM in [2]; above 44.1 µM in [3]; 5.46 µM in assay [4]; 28.1 µM in assay [5]; 8.39 µM in assay [6]. Also, the TGI in assay [7] is 19.3 µM; in assay [8], 34.2 µM; in assay [9], above 52.2 µM; in [10] it was 15.4 µM.
With `O=C1c2ccccc2-c2c1c1ccccc1c(=O)n2CCCNCCCCNCCCN1C(=O)c2ccccc2C2C(=O)c3ccccc3C21` (stereo unspecified), the GI50 was 1.04 µM in assay [1]; 0.681 µM in assay [2]; 0.739 µM in assay [3]; 0.0919 µM in [4]; 0.726 µM in assay [5]; 0.273 µM in assay [6]. For the same molecule, the GI50 is 0.0451 µM in assay [7], 0.284 µM in assay [8], 0.512 µM in [9] and 0.127 µM in [10]. The TGI in [1] was 3.82 µM; in [2], 1.61 µM; in assay [3], 2.08 µM; in assay [4], 0.759 µM; in assay [5] it was 1.46 µM; in assay [6], 1.08 µM. Besides, the TGI in [7] amounted to 0.881 µM; in assay [8] it was 1.04 µM; in assay [9] it was 1.24 µM; in [10] it was 0.837 µM.
As for `CC(=O)OC12COC1CC(O)C1(C)C(=O)C(O)C3=C(C)C(O)CC(O)(C(OC(=O)c4ccccc4)C21)C3(C)C` (stereo unspecified), the GI50 in assay [1] was 1.84 µM; in [3] it was 1.36 µM. For the same molecule, the TGI is 6.51 µM in assay [1]; 5.29 µM in [2]; 6.15 µM in assay [3]; 5.51 µM in assay [4]; above 29.9 µM in assay [5]; above 100 µM in assay [6]. The TGI in assay [7] is above 100 µM; in assay [8] it was above 100 µM; in assay [9] it was above 28.5 µM; in assay [10], above 100 µM.
In the case of `O=C(O)c1ccc(C(=O)O)c(C(=O)Nc2ccc3c(c2)C(=O)c2ccccc2-3)c1`, the TGI in assay [1], in assay [2], in assay [3], in assay [4], in [5] and in assay [6] was above 100 µM throughout. In addition, the TGI in assay [7], in assay [8], in assay [9] and in assay [10] was above 100 µM throughout.
Take `CCCCCCCCn1ccc2cc(NC(=O)Cn3cc(CN4CCCCC4)nn3)ccc21`: the GI50 is 1.9 µM in assay [1]; 1.84 µM in [2]; 1.96 µM in assay [3]; 1.81 µM in [4]; 1.51 µM in assay [5]; 1.89 µM in assay [6]. The GI50 is 1.99 µM in assay [7], 1.8 µM in [8], 1.43 µM in [9] and 4.1 µM in assay [10]. Besides, the TGI in assay [1] turned out to be 3.68 µM; in [2], 3.68 µM; in [3] it was 4.84 µM; in assay [4] it was 3.26 µM; in assay [5] it was 2.96 µM; in assay [6] it was 3.75 µM. Moreover, the TGI in assay [7] amounted to 4.57 µM; in assay [8], 3.52 µM; in [9], 3.05 µM; in assay [10] it was 14.4 µM.
For `COc1cc2c(cc1OC)C1Cc3cc(OC)c(OC)cc3C(C2)N1C`, the TGI in assay [1] was above 100 µM; in [2] it was above 75 µM; in assay [3], above 75 µM; in assay [4], above 75 µM; in assay [5], above 100 µM; in assay [6], above 100 µM. Moreover, the TGI is above 100 µM in assay [7], above 75 µM in [8], above 75 µM in [9] and above 75 µM in assay [10].
